Test results: patent US20220079944A1, “2H-INDAZOLE DERIVATIVES AS THERAPEUTIC AGENTS FOR BRAIN CANCERS AND BRAIN METASTASES” (BETA PHARMA, INC., priority 2019, published 2022)
Read-outs that look alike come from different tables or passages of the source. Blank lines part the entries; values can stand above or below the molecule they belong to.

How the values were obtained:
MDR1 (P-gp) = experiment: in vitro; conditions: dog, MDCK-MDR1
Protocol: MDR1-MDCK cell monolayers were grown to confluence on collagen-coated, microporous membranes in 12-well assay plates. […] The permeability assay buffer was Hanks' balanced salt solution (HBSS) containing 10 mM HEPES and 15 mM glucose at a pH of 7.4. The buffer in the receiver chamber also contained 1% bovine serum albumin. The dosing solution concentration was 5 μM of test article in the assay buffer+/−1 μM valspodar. Cells were first pre-incubated for 30 minutes with HBSS containing +/−1 μM valspodar. Cell monolayers were dosed on the apical side (A-to-B) or basolateral side (B-to-A) and incubated at 37° C. with 5% CO2 in a humidified incubator. Samples were taken from the donor and receiver chambers at 120 minutes. Each determination was performed in duplicate. The flux of lucifer yellow was also measured post-experimentally for each monolayer to ensure no damage was inflicted to the cell monolayers during the flux period. All samples were assayed by LC-MS/MS using electrospray ionization.

[1] = Brain concentration and brain/plasma ratio in mouse after 10 mg/kg p.o.; type: in vivo; conditions: PO 10 mg/kg
p-glycoprotein (P-gp) = p-glycoprotein (P-gp) (Homo sapiens, UniProt P08183); conditions: background statement; cited from earlier work
[2] = brain, po, 10 mg/kg, individual animal R1, read-out: Brain Concentration, R1 + 3n
[3] = brain, po, 10 mg/kg, individual animal R2, read-out: Brain Concentration, R2 + 3n
[4] = brain, po, 10 mg/kg, individual animal R3, read-out: Brain Concentration, R3 + 3n
[5] = brain, po, 10 mg/kg, mean, read-out: Brain Concentration, Mean PO
[6] = plasma, po, 10 mg/kg, individual animal R1, read-out: Plasma Concentration, R1 + 3n
[7] = plasma, po, 10 mg/kg, individual animal R2, read-out: Plasma Concentration, R2 + 3n
[8] = plasma, po, 10 mg/kg, individual animal R3, read-out: Plasma Concentration, R3 + 3n
[9] = plasma, po, 10 mg/kg, mean, read-out: Plasma Concentration, Mean PO

Sequence of p-glycoprotein (P-gp) (P08183 whole entry): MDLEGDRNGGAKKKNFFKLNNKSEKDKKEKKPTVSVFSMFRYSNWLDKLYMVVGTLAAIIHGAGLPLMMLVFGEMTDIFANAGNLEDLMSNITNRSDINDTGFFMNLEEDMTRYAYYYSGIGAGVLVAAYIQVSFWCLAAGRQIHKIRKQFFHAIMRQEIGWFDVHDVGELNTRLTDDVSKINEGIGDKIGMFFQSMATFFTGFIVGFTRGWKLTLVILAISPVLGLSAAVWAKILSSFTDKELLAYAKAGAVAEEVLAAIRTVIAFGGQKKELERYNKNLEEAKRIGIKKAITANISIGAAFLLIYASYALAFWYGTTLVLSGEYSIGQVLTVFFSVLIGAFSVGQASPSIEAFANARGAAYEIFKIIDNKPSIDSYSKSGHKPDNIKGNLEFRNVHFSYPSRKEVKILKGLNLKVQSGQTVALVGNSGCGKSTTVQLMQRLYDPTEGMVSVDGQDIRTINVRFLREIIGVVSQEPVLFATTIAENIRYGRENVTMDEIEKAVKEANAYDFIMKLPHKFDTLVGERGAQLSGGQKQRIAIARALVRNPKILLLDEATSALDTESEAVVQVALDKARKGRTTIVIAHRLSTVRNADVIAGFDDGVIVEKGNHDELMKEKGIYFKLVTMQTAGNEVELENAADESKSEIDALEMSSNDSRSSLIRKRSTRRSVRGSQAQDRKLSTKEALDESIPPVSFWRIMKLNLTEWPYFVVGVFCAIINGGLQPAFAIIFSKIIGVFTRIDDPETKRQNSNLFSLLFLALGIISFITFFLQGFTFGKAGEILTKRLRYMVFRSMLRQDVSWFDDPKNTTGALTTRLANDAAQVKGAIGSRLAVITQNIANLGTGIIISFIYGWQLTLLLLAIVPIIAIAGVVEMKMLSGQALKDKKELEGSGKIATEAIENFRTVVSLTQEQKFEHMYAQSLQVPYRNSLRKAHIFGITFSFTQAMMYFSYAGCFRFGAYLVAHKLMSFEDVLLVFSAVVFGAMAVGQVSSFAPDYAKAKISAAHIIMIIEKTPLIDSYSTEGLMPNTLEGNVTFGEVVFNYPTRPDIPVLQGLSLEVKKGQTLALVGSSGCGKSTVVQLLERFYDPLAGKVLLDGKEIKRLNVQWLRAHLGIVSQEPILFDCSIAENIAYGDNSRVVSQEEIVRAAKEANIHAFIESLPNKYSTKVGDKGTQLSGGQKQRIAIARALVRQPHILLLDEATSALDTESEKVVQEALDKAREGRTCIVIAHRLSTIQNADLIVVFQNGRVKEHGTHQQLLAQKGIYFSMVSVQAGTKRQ

- Papp A→B (MDR1 (P-gp)): 0.05 ×10⁻⁶ cm/s
- Papp B→A (MDR1 (P-gp)): 13.9 ×10⁻⁶ cm/s
- efflux ratio (MDR1 (P-gp)): 254
Structure (SMILES): C[C@H]1O[C@@H](O[C@H]2[C@@H](O)C[C@H](O[C@H]3[C@@H](O)C[C@H](O[C@H]4CC[C@@]5(C)[C@H](CC[C@@H]6[C@@H]5C[C@@H](O)[C@]5(C)[C@@H](C7=CC(=O)OC7)CC[C@]65O)C4)O[C@@H]3C)O[C@@H]2C)C[C@H](O)[C@@H]1O [Digoxin]

- Papp (MDR1 (P-gp)): 12.8 ×10⁻⁶ cm/s
Structure (SMILES): CC(C)NCC(O)COc1cccc2ccccc12 (stereo not drawn) [Propranolol]

- AUC0-last Ratio, brain/plasma (B/P) ratio ([1]; brain AUC0-last / plasma AUC0-last, 10 mg/kg): 0.432
- Brain AUC0-last ([1]; brain, from mean concentrations): 4085 ng·h/g
- AUC(0-t) ([1]; plasma, from mean concentrations, read-out: Plasma AUC0-last): 9450 ng·h/mL
- concentration at 2 h [1, 2]: 216 ng/g
- concentration at 2 h [1, 3]: 326 ng/g
- concentration at 2 h [1, 4]: 302 ng/g
- concentration at 2 h [1, 5]: 282 ng/g
- concentration at 4 h [1, 2]: 452 ng/g
- concentration at 4 h [1, 3]: 370 ng/g
- concentration at 4 h [1, 4]: 469 ng/g
- concentration at 4 h [1, 5]: 430 ng/g
- concentration at 8 h [1, 2]: 421 ng/g
- concentration at 8 h [1, 3]: 277 ng/g
- concentration at 8 h [1, 4]: 341 ng/g
- concentration at 8 h [1, 5]: 347 ng/g
- concentration at 24 h [1, 2]: 6.51 ng/g
- concentration at 24 h [1, 3]: 14.8 ng/g
- concentration at 24 h [1, 4]: 10.6 ng/g
- concentration at 24 h [1, 5]: 10.6 ng/g
- Kp ([1]; brain, po, 10 mg/kg, brain AUC0-last / plasma AUC0-last, read-out: AUC0-last Ratio, brain/plasma (B/P) ratio): 0.43
- concentration at 2 h [1, 6]: 633 ng/mL
- concentration at 2 h [1, 7]: 1060 ng/mL
- concentration at 2 h [1, 8]: 821 ng/mL
- concentration at 2 h [1, 9]: 836 ng/mL
- concentration at 4 h [1, 6]: 700 ng/mL
- concentration at 4 h [1, 7]: 744 ng/mL
- concentration at 4 h [1, 8]: 963 ng/mL
- concentration at 4 h [1, 9]: 802 ng/mL
- concentration at 8 h [1, 6]: 1020 ng/mL
- concentration at 8 h [1, 7]: 707 ng/mL
- concentration at 8 h [1, 8]: 780 ng/mL
- concentration at 8 h [1, 9]: 837 ng/mL
- concentration at 24 h [1, 6]: 11.5 ng/mL
- concentration at 24 h [1, 7]: 46.7 ng/mL
- concentration at 24 h [1, 8]: 16.6 ng/mL
- concentration at 24 h [1, 9]: 24.9 ng/mL
Structure (SMILES): CCN1CCN(Cc2ccc(Nc3ncc(F)c(-c4cc(F)c5nc(C)n(C(C)C)c5c4)n3)nc2)CC1 [abemaciclib, reference compound]
- P-gp substrate (p-glycoprotein (P-gp)): p-glycoprotein (P-gp) substrates

Structure (SMILES): CC(=O)c1c(C)c2cnc(Nc3ccc(N4CCNCC4)cn3)nc2n(C2CCCC2)c1=O [palbociclib]
- P-gp substrate (p-glycoprotein (P-gp)): p-glycoprotein (P-gp) substrates
